Measured values published in ChEMBL document CHEMBL1201862, “PubChem BioAssay data set” (2004).
Blank lines part the entries; values can stand above or below the compound they belong to. Active and inactive are the calls of the source.

Assays:
[1] = activation of miR-122 Renilla sensor silencing – cell-based, Huh7 psiCHECK-miR122, Renilla luciferase, cherry-picked, dose response (AID 651956); type: functional;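 also: huh7 hepatoma cells stably carrying a psiCHECK-2 miR-122 sensor plasmid; renilla luciferase signal reporting endogenous miR-122 activity after 48 h compound exposure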
[2] = Trypanosoma cruzi growth suppression in host cells – NIH3T3 host cells, beta-gal luminescence, confirmation (AID 2044); type: functional, cell-based;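 also: intracellular parasites grown in NIH/3T3 mouse fibroblasts as host cells; luminescent beta-galactosidase reporter signal from transgenic T. cruzi replicating inside host cells; inhibitors lower the luminescence signal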
[3] = fluconazole-exposed Candida albicans growth modulators – fluorescence, retest, confirmation (AID 2467); type: functional, cell-based
Estrogen receptor = molecular target: T1, Estrogen receptor (Homo sapiens, UniProt P03372);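 also: potency for inhibiting coactivator peptide recruitment to the receptor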
T1 sequence (P03372 whole entry): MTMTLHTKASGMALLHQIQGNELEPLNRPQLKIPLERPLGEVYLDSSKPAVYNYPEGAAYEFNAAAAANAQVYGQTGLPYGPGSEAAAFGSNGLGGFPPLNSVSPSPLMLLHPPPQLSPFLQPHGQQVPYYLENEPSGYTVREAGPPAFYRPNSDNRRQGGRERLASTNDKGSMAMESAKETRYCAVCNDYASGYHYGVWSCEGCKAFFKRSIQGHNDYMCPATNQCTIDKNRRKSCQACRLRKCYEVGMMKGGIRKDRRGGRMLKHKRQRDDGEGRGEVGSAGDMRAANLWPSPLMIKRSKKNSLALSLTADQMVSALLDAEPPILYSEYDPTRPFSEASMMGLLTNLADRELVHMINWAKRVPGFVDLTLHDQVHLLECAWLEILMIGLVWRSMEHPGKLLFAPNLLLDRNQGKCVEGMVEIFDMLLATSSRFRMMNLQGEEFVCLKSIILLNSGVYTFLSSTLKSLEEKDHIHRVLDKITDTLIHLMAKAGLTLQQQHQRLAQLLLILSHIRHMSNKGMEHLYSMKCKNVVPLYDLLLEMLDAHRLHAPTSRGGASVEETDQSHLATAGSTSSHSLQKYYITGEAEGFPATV

[4] = NIH3T3 cell viability loss – ATP luminescence, mouse fibroblasts, counter-screen, dose response (AID 2010); type: functional, cell-based;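 also: cells exposed to compound for about 90 hours before reading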
[5] = molecular target: T2, Sentrin-specific protease 1 (Homo sapiens, UniProt Q9P0U3); test: SENP1 catalytic domain blockers, concentration series – biochemical, kinetic FRET, dose response (AID 651697); type: functional; conditions: read-out: IC50_Mean
T2 sequence (Q9P0U3 whole entry): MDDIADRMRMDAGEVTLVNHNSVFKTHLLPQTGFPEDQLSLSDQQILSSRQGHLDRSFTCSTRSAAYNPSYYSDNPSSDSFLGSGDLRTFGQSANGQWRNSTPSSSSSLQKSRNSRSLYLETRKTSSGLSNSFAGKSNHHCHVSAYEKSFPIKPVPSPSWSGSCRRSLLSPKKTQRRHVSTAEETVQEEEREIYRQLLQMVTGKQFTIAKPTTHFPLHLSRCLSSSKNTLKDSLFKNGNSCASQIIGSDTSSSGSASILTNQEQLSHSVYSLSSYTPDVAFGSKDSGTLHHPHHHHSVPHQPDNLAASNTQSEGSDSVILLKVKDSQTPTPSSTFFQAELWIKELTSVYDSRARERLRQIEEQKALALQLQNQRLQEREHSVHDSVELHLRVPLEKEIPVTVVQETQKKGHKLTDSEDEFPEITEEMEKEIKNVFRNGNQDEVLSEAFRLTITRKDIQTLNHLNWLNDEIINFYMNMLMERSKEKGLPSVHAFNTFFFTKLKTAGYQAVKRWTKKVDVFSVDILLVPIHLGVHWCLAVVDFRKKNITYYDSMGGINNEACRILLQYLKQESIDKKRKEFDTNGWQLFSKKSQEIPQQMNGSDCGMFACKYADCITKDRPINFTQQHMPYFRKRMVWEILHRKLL

[6] = molecular target: T2, Sentrin-specific protease 1; test: Dose response confirmation of small molecule inhibitors of the catalytic domain of the SUMO protease, SENP1 in a FRET assay.; type: functional; conditions: read-out: IC50_Mean
[7] = NIH-3T3 fibroblast cytotoxicity, dose response, cytotoxicity control, cell-based, fluorescence, Alamar Blue, secondary assay (AID 2327); type: functional;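 also: NIH-3T3 mouse fibroblasts cultured with fluconazole at 8 µg/mL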
[8] = molecular target: Nucleotide-binding oligomerization domain-containing protein 2 (Homo sapiens, UniProt Q9HC29); test: inhibition of NOD2-driven NF-kB reporter – cell-based, luminescence, uHTS, HEK293 (AID 1566); type: functional
Chain of Nucleotide-binding oligomerization domain-containing protein 2 (Q9HC29 whole entry, the tested form may be a part): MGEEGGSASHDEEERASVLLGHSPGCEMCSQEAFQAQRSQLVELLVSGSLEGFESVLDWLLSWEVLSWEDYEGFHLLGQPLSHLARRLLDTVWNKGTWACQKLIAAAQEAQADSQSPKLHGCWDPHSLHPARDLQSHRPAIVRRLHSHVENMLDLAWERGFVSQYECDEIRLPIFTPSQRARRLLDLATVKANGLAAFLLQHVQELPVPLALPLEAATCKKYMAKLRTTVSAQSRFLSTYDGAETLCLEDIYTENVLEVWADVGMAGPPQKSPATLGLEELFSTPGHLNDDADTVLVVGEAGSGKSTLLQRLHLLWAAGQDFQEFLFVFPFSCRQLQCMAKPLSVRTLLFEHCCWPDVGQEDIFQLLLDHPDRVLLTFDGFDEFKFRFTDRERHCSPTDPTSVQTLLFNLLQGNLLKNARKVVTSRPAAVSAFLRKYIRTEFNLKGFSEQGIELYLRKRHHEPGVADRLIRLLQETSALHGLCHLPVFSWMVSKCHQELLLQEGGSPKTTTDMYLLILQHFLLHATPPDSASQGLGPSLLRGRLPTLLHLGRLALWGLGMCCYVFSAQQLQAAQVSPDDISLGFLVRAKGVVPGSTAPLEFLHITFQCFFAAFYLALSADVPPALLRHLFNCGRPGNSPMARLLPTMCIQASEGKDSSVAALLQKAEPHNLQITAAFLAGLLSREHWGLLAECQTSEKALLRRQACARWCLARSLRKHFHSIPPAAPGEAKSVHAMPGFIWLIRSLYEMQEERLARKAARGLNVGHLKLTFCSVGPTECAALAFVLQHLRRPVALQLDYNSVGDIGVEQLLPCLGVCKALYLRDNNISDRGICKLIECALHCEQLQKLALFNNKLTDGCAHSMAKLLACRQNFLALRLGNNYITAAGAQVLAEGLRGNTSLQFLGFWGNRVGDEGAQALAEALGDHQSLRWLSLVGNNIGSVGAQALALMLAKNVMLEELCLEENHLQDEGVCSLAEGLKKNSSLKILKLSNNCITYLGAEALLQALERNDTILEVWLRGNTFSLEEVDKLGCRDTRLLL

HEK293 [9] = test: cells; type: functional, cell-based; conditions: Homo sapiens
HEK293 [10] = test: cells; type: functional, cell-based; conditions: Homo sapiens; remark: listed apart in the source
HEK293 [11] = test: cells; type: functional, cell-based; conditions: Homo sapiens; remark: listed apart in the source
HEK293 [12] = test: inhibition of NOD1-driven NF-kB reporter – cell-based, luminescence, uHTS, primary screen (AID 1578); type: functional; conditions: Homo sapiens
HEK293 [13] = test: NOD2 signaling inhibitors in MDP-stimulated cells, cell-based, uHTS, luminescence (AID 2001); type: functional; conditions: Homo sapiens
[14] = molecular target: Photoreceptor-specific nuclear receptor (Homo sapiens, UniProt Q9Y5X4); type: functional, cell-based;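 also: CHO-S cells with Gal4-NCOR and VP16-NR2E3 two-hybrid luciferase reporter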
Chain of Photoreceptor-specific nuclear receptor (Q9Y5X4 whole entry, the tested form may be a part): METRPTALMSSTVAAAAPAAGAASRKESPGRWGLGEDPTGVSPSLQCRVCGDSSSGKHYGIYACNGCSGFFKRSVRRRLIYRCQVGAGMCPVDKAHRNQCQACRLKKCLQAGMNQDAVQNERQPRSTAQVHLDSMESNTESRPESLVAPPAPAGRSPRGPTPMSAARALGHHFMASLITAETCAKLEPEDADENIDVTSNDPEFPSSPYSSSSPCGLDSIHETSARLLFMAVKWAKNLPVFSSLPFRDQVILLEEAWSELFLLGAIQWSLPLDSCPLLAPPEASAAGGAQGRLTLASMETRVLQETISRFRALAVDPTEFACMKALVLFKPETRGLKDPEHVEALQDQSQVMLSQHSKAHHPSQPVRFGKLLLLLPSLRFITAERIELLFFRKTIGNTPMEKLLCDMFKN

[15] = molecular target: T3, Heat shock factor protein 1 (Mus musculus, UniProt P38532); test: enhancement of HSF1-driven luciferase signal – cell-based, NIH3T3, luminescence, dose retest, confirmation (AID 435004); type: functional;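 also: stress induced by proteasome inhibitor MG132 added 30 min after compound; luciferase reporter driven by HSF1 response element in NIH3T3 cells; actives raise luminescence as potentiators of the MG132 stress response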
T3 sequence (P38532 whole entry): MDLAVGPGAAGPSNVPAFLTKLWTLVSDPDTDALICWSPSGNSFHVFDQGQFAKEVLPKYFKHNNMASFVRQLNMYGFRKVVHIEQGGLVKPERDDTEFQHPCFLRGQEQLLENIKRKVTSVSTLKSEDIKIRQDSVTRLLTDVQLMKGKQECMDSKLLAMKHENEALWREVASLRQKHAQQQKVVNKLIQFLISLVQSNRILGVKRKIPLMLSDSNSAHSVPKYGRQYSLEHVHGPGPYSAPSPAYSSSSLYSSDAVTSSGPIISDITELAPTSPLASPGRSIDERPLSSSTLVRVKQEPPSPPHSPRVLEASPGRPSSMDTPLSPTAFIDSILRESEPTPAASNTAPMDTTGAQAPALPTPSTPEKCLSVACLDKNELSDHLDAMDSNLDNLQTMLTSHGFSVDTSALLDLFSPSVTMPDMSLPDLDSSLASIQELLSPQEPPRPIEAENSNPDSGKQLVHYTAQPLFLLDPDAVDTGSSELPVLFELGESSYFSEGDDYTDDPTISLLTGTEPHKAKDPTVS

Protein Wnt-3a = Protein Wnt-3a (Mus musculus, UniProt P27467); test: antagonism of Wnt3a pathway luciferase reporter – Wnt-LIGHT cells, luminescence, selectivity assay for Gli-SUFU antagonist project, dose response (AID 651570); type: functional; conditions: read-out: IC50_Mean;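 also: Wnt-LIGHT reporter cells stimulated with conditioned medium from Wnt3a-producing cells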
Chain of Protein Wnt-3a (P27467 whole entry): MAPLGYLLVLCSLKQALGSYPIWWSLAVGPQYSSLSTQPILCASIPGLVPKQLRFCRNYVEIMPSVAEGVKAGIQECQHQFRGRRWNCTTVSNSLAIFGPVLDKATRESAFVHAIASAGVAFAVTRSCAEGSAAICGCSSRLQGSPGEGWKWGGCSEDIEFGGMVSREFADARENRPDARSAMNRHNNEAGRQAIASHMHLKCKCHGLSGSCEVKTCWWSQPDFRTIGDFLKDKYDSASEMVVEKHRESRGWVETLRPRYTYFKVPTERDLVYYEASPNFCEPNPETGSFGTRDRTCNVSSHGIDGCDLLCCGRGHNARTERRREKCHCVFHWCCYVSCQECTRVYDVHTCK

Large T antigen = Large T antigen (Simian virus 40, UniProt P03070); type: functional, Betapolyomavirus macacae;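 also: Confirmatory-stage PubChem screen for compounds that inhibit SV40 T antigen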
Chain of Large T antigen (P03070 whole entry): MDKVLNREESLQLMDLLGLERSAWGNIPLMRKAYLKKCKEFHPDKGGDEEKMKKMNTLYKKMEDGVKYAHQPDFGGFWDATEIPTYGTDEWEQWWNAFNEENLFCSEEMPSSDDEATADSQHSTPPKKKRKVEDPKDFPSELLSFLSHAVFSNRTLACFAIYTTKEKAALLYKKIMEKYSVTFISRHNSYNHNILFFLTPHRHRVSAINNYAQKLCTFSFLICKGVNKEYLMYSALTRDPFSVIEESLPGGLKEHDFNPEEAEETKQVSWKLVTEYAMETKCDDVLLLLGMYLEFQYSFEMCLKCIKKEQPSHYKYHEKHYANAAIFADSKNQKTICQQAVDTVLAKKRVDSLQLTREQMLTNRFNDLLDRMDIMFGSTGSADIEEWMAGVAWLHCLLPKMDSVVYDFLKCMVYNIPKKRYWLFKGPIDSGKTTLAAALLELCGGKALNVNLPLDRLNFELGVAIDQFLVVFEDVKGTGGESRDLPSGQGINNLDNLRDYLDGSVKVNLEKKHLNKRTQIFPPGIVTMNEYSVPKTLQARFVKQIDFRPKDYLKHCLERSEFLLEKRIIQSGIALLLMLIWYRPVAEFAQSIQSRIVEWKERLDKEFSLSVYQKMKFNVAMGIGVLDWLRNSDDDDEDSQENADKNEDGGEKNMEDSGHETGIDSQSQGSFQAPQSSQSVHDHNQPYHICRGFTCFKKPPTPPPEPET

[16] = molecular target: T4, Rac GTPase-activating protein 1 (Homo sapiens, UniProt Q9H0H5); test: blockers of MgcRacGAP-driven Rac1 GTP hydrolysis – biochemical, ADP Hunter fluorescence, primary and confirmatory, confirmation (AID 624330); type: functional
T4 sequence (Q9H0H5 whole entry): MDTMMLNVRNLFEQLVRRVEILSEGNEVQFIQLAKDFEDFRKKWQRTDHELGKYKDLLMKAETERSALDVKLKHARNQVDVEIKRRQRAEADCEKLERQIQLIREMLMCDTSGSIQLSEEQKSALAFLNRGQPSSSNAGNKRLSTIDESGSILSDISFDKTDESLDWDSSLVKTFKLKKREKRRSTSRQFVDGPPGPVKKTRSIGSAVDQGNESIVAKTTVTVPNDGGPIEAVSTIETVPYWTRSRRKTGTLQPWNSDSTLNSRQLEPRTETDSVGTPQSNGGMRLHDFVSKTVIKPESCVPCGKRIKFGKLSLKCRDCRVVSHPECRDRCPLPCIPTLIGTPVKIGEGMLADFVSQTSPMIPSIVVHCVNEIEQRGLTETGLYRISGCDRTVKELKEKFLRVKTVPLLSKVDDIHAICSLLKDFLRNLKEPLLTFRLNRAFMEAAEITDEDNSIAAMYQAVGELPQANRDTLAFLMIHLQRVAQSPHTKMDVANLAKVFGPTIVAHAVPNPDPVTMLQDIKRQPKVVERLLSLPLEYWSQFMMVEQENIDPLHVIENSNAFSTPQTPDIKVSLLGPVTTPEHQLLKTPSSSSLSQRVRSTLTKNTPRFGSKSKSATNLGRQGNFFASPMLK

SMILES: CCC(=O)N1C[C@H]2[C@@H](c3ccccc31)[C@H](CO)N2C(=O)Nc1ccccc1F
AC50 [1]: 4.38 µM (active)

SMILES: Cc1cccc(-n2c(SCc3cc(=O)n4ccsc4n3)nc3ccccc32)c1
EC50 [2]: < 0.1 µM (active)
EC50 [3]: 2.05 µM (active)
IC50 (Estrogen receptor): > 50 µM (not active)
EC50 [4]: > 60 µM (not active)
IC50 [5]: 22.3 µM (inactive)
IC50 [6]: 9.71 µM (active)
EC50 (cells): 0.209 µM (active)
EC50 [7]: 19.9 µM (active)

SMILES: C=CCn1c(C)cc(C(=O)COc2ccc(C)nc2[N+](=O)[O-])c1C
EC50 [8]: 6.96 µM (active)
IC50 (HEK293 [9]): 5.78 µM (active)
IC50 (HEK293 [10]): > 20 µM (inactive)
IC50 (HEK293 [11]): > 20 µM (inactive)
EC50 (HEK293 [12]): > 20 µM (inactive)
IC50 (HEK293 [13]): > 20 µM (inactive)
IC50 [14]: 4.69 µM (active)

SMILES: Cc1ccccc1-c1ccc2c(c1)O[C@@H](CN(C)C(=O)Nc1ccc(F)cc1)[C@@H](C)CN([C@@H](C)CO)S2(=O)=O
AC50 [1]: 18.5 µM (active)

SMILES: CCCC#Cc1ccc2c(c1)O[C@H](CN(C)C(=O)c1ccncc1)[C@H](C)CN([C@@H](C)CO)S2(=O)=O
AC50 [1]: 1.06 µM (active)

Further lines, results first:

IC50 [5]: 53.8 µM (inactive)
IC50 [6]: 17.2 µM (active)
SMILES: c1ccc(NC2=Nc3cccc4cccc2c34)cc1

IC50 [5]: 45.8 µM (inactive)
IC50 [6]: 10 µM (active)
SMILES: COc1ccc(NC2=Nc3cccc4cccc2c34)cc1

IC50 [5]: 9.06 µM (active)
IC50 [6]: 9.39 µM (active)
SMILES: COc1cc(S(=O)(=O)Nc2ccc3c(c2)C(=O)N(C)C3=O)ccc1NC(C)=O

IC50 [5]: 7.01 µM (active)
IC50 [6]: 7.24 µM (active)
SMILES: c1ccc(CN2CCN(C3=Nc4cccc5cccc3c45)CC2)cc1

EC50 [15]: 5.35 µM (active)
IC50 (Protein Wnt-3a): 7.28 µM (active)
IC50 (Large T antigen): 12.1 µM (active)
IC50 [14]: 3.35 µM (active)
IC50 [16]: 13 µM (active)
SMILES: O=C1N/C(=C\c2ccc(O)cc2)C(O)=C1/C=N/Cc1ccccc1
